Measurements from patent publication US20090186907A1, “Pyrazinones As Cellular Proliferation Inhibitors” (E.I. DuPont De Nemours and Company, priority 2006, published 2009).

Experiments:
[1] = tested on: rhabdomyosarcoma (RD) cells; assay: Assay for inhibition of cell proliferation (MTT), rhabdomyosarcoma cells; assay type: cell-based, human; details: for IC50: rhabdomyosarcoma (RD) cells, MTT, 96 h incubation; for RD Ratio (paclitaxel/compound): ratio of paclitaxel IC50 to compound IC50, RD cells
Procedure: (§1) Human rabdomyosarcoma (RD) and mouse neuroblastoma (N1E115) cell lines were obtained from the American Type Culture Collection (ATCC, Rockville, Md.). The RD cells were grown in Dulbecco's modified eagle medium (DMEM) supplemented with 4 mM glutamine, containing 10% fetal bovine serum (ATCC #30-2020) and supplemented with 1% penicillin and 1% streptomycin. When confluent, the cells were maintained by passage (about once per week) until needed. The N1E115 line was also cultured in DMEM with 4 mM glutamine containing 10% newborn calf serum (Gibco, Grand Island, N.Y.) and likewise maintained.
(§2) The proliferation of rhabdomyosarcoma cells was determined using a cell proliferation assay kit based on the formation of insoluble formazan crystals from 3-(4,5-dimethylthiazol-2-yl)-2,5-diphenyltetrazolium bromide (MTT). The rhabdomyosarcoma cells were cultured to a density of 10^5 cells per mL. The cell culture (100 μL) was dispensed into wells of a 96-well plate to 10^4 cells per well. The plate was incubated at 37° C. for 3 h until the cells firmly attached to the well surfaces.
(§3) A second 96-well round bottom plate was made up containing the test compounds, serially diluted to cover the concentration range of interest using the DMEM medium plus antibiotics. The final concentration of DMSO in which the compounds were initially dissolved was maintained at a constant 0.5% in each well and the volume of the compounds in the plate was 220 μL. Following the 3 h incubation the medium was removed from the plate containing the cells and replaced with 200 μL of the solutions containing the compounds. The cells were incubated for a further 96 h before the assessment of growth inhibition using MTT.
(§4) The cells were left bathing in 100 μL of the saline solution to which was added 100 μL of MTT in saline (12 mM). Incubation was continued for 4 h at 37° C. to produce the blue formazan color which was quantified by optical density measurements at 570 nm. Background correction of all test wells was performed by subtraction of the yellow MTT solution color measured at 570 nm in cell-free wells. The data were normalized to solvent only control wells.

[2] = tested on: neuroblastoma (N1E115) cells; assay: Assay for inhibition of cell proliferation (MTT), neuroblastoma cells; assay type: cell-based, mouse; details: for IC50: neuroblastoma (N1E115) cells, MTT; for N1E115 Ratio (paclitaxel/compound): ratio of paclitaxel IC50 to compound IC50, N1E115 cells
Procedure: as §1, §2, §3, §4

SMILES	melting point [°C]	RD Ratio (paclitaxel/compound) [1]	N1E115 Ratio (paclitaxel/compound) [2]	further results
CC[C@H](C)Cn1c(-c2c(F)cc(F)cc2F)c(Cl)nc(-n2cccn2)c1=O [Compound 155, 5-Chloro-1-[(2S)-2-methylbutyl)-3-(1H-pyrazol-1-yl)-6-(2,4,6-trifluorophenyl)-2(1H)-pyrazinone]	112 to 113	0.85	1.17	IC50 ([1]; Homo sapiens): 20 nM; IC50 ([2]; Mus musculus, N1E-115): 75 nM
CC(C)Cn1c(-c2c(F)cccc2F)c(Cl)nc(C#N)c1=O [Compound 5, 6-Chloro-5-(2,6-difluorophenyl)-3,4-dihydro-4-(2-methylpropyl)-3-oxopyrazinecarbonitrile]	100 to 102			
CC(C)Cn1c(-c2ccc(F)cc2Cl)c(Cl)nc(-n2cccn2)c1=O [Compound 53, 5-Chloro-6-(2-chloro-4-fluorophenyl)-1-(2-methylpropyl)-3-(1H-pyrazol-1-yl)-2(1H)-pyrazinone]	137 to 139	0.07	0.13	IC50 ([1]; Homo sapiens): 230 nM; IC50 ([2]; Mus musculus, N1E-115): 700 nM
COc1ccc(Cn2c(-c3c(F)cccc3F)c(Cl)nc(-n3cccn3)c2=O)cc1 [Compound 271, 5-Chloro-6-(2,6-difluorophenyl)-1-[(4-methoxyphenyl)methyl]-3-(1H-pyrazol-1-yl)-2(1H)-pyrazinone]	235 to 236			
CC(C)Cn1c(-c2c(F)cccc2F)cnc(-n2cccn2)c1=O [Compound 342, 6-(2,6-Difluorophenyl)-1-(2-methylpropyl)-3-(1H-pyrazol-1-yl)-2(1H)-pyrazinone]	91 to 92			
CC(C)Cn1c(-c2c(F)cccc2F)c(Cl)nc(-c2cn(C)cn2)c1=O [Compound 85, 5-Chloro-6-(2,6-difluorophenyl)-1-(2-methylpropyl)-3-(1-methyl-1H-imidazol-4-yl)-2(1H)-pyrazinone]	191 to 193			
Cc1nc(-n2cccn2)c(=O)n(CC(C)C)c1-c1c(F)cccc1F [Compound 149, 5-Methyl-6-(2,6-difluorophenyl)-1-(2-methylpropyl)-3-(1H-pyrazol-1-yl)-2(1H)-pyrazinone]	105 to 106			
CC[C@H](C)Cn1c(-c2c(F)cc(OCCCNC)cc2F)c(Cl)nc(-n2ccc(C)n2)c1=O [Compound 494, 5-chloro-6-[2,6-difluoro-4-[3-(methylamino)propoxy]phenyl]-1-[(2S)-2-methylbutyl]-3-(3-methyl-1H-pyrazol-1-yl)-2(1H)-pyrazinone]		42.50	67.69	IC50 ([1]; Homo sapiens): 0.4 nM; IC50 ([2]; Mus musculus, N1E-115): 1.3 nM
O=c1c(-n2cccn2)nc(Cl)c(-c2c(F)cc(F)cc2F)n1CC1CC1 [Compound 460]		0.19	0.52	IC50 [1]: 90 nM; IC50 [2]: 170 nM
CNCCCOc1cc(F)c(-c2c(Cl)nc(-n3cccn3)c(=O)n2-c2cccc(F)c2)c(F)c1.Cl [Compound 492]		5.15	5.50	IC50 [1]: 3.3 nM; IC50 [2]: 16 nM

Now from value to compound, other results behind:

melting point [°C]	SMILES	RD Ratio (paclitaxel/compound) [1]	N1E115 Ratio (paclitaxel/compound) [2]	further results
73 to 77	CCC(C)Cn1c(-c2ccc(F)cc2F)c(C)nc(C#N)c1=N (centres unmarked) [Compound 471, 5-(2,4-Difluorophenyl)-3,4-dihydro-3-imino-6-methyl-4-(2-methylbutyl)pyrazinecarbonitrile]			
147 to 149	O=c1c(-n2cccn2)nc(Cl)c(-c2c(F)cc(F)cc2F)n1CC(F)(F)C(F)(F)F [Compound 468, 5-Chloro-1-(2,2,3,3,3-pentafluoropropyl)-3-(1H-pyrazol-1-yl)-6-(2,4,6-trifluorophenyl)-2(1H)-pyrazinone]			
